Like-named read-outs stand apart in the source and are kept apart here.
How the values were obtained:
Format in all cases: cell-based, human
Bcl-2 = Bcl-2 protein level by flow cytometry, MCF-7; settings: 24 h
Procedure: (§1) For this purpose, Akt (PE), Bax (FITC), Bcl-2 (Alexa Fluor® 647), LC3A/B (Alexa Fluor® 488), and p53 (Alexa Fluor® 488) antibodies conjugated to different fluorochromes (all from Cell Signaling Technology, Beverly, MA, USA) were utilized. Each assay was performed according to the manufacturer's protocol available on their website. After incubation with the tested compounds, the cells were centrifuged, resuspended in 4% formaldehyde (100 μL/1 × 10^6 cells), and fixed for 15 min at room temperature. Afterward, to remove the formaldehyde, the cells were washed by centrifugation with excess PBS and the permeabilization step was triggered. For this purpose, ice-cold 90% methanol was added to the pre-chilled cell pellet, gently vortexed, and incubated for 1 h on ice. Later, the cells were washed by centrifugation with excess PBS again, resuspended in 100 μL of 1:100 diluted primary antibody (stain buffer was used for dilution), and incubated for 1 h at room temperature in the dark. After incubation, the cells were washed, resuspended in 300 μL PBS, and immediately tested with a flow cytometer (BD FACSCanto II, BD Biosciences Systems, San Jose, CA, USA; 10,000 events measured). The obtained results were analyzed using the FACSDiva 6.0 software (BD Biosciences Systems, San Jose, CA, USA). In the case of the p53 protein, the MRF values were obtained first during the flow cytometer readout utilizing FACSDiva software and later analyzed using FCS Express 7 (De Novo Software, Pasadena, CA, USA). The equipment calibration was performed using the BD Cytometer Setup and Tracking Beads (BD Biosciences, San Diego, CA, USA).

caspase 8 = experiment: Caspase 8 activity (FAM-FLICA, flow cytometry), MDA-MB-231; settings: 24 h
Procedure: (§2) The FAM-FLICA® Caspase Assay kits (all from ImmunoChemistry Technologies, Bloomington, MN, USA) and flow cytometer (BD FACSCanto II, BD Biosciences Systems, San Jose, CA, USA) were used to evaluate the activity of caspase 3/7, 8, and 9. MCF-7 and MDA-MB-231 cells were treated with selenoesters under the study (EDAG-1 and EDAG-8) and a reference agent (cisplatin) at two different concentrations (0.5 and 1 µM; treatment duration: 24 h). Following this, cells were collected, washed twice with cold PBS, and resuspended in an Apoptosis Wash Buffer to a final concentration of 5 × 10^5 cells/mL. In the next step, 290 µL each of cell suspension was taken and transferred into tubes. Then 10 µL of FLICA solution diluted immediately before use (1:5 v/v, using PBS) was added to the cells, mixed by pipetting, and incubated in the dark for 1 h at 37 °C. After this time, the cells were washed twice with 2 mL Apoptosis Wash Buffer, centrifuged, and resuspended in 300 µL of the buffer. Thus, prepared samples were immediately analyzed using a BD FACSCanto II flow cytometer (10,000 events) with the FACSDiva 6.0 software (both from BD Biosciences Systems, San Jose, CA, USA). The equipment calibration was carried out using the BD Cytometer Setup and Tracking Beads (BD Biosciences, San Diego, CA, USA).

caspase 7 = experiment: Caspase 3/7 activity (FAM-FLICA, flow cytometry), MCF-7; settings: MCF-7 (lack caspase 3), 24 h
Procedure: as §2

[1] = test system: breast cancer cells (MCF-7 and MDA-MB-231); experiment: Apoptosis induction, summary statements
Procedure: The FITC Annexin V Apoptosis Detection Kit II (BD Pharmingen, San Diego, CA, USA) and a flow cytometer (BD FACSCanto II, BD Biosciences Systems, San Jose, CA, USA) were used in this evaluation. The assay was performed according to the manufacturer’s instructions. Flow cytometer calibration was performed by preparing two controls—a positive and a negative control. […] The negative control was cells that were not treated with any of the proapoptotic agents. First, in the cells treated with the tested compounds as well as the controls, the medium was removed, and the cells were washed twice with cold PBS. Subsequently, the cells were resuspended in the binding buffer included in the kit at a concentration of 1 × 10^6 cells/mL. From each sample, 100 µL of cell suspension was taken and transferred to test tubes, to which 5 µL each of FITC annexin V and propidium iodide (PI) were then added. The contents of the test tubes were gently vortexed and incubated for 15 min at room temperature, protected from light. After the required time, the contents of the test tubes were made up to 500 µL with binding buffer and immediately analyzed in a flow cytometer (10,000 events measured). After the flow cytometer readout, the results were analyzed using the FACSDiva 6.0 software (BD Biosciences Systems, San Jose, CA, USA). […]

caspase 3/7 = experiment: Caspase 3/7 activity (FAM-FLICA, flow cytometry), MDA-MB-231; settings: 24 h
Procedure: as §2

Bax = Bax protein level by flow cytometry, MDA-MB-231; settings: 24 h
Procedure: as §1

LC3A/B = LC3A/B protein level by flow cytometry, MDA-MB-231; settings: 24 h
Procedure: as §1

[2] = test system: MDA-MB-231 triple-negative breast cancer cells; experiment: DNA biosynthesis assay ([3H]-thymidine incorporation), MDA-MB-231; settings: read-out: IC50, DNA biosynthesis
Procedure: The study of the antiproliferative properties (intensity of [^3H]-thymidine incorporation into cell DNA) of the tested derivatives against tested cell lines (MCF-7, MDA-MB-231, MCF-10A) was performed after 24 h incubation with varied concentrations of the tested compounds in the medium (0.5–5 µM) in 6-well plates (baseline seeding density: 5 × 10^5 cells/well). After 24 h the medium was removed, the cells were washed with PBS (Corning, Kennebunk, ME, USA), and a fresh medium was added. After that, the cells were treated with 0.5 µCi of tritium-labeled thymidine (specific activity 7 Ci/mmol) by incubating them with this compound for 4 h under the same conditions as the cell culture. In the first step, the medium was removed, and the cell monolayer was washed twice with 1 mL of 0.05 M Tris-HCl buffer pH 7.4 containing 0.11 M NaCl. To denature proteins, the cells were washed twice with 1 mL of 5% trichloroacetic acid (TCA) solution. Finally, cell lysis was performed by adding 1 mL of 0.1 M sodium hydroxide (NaOH) solution containing 1% sodium dodecyl sulfate (SDS) to each well. After five minutes, the obtained cell lysates were transferred to scintillation vials with 2 mL of scintillation fluid added to them beforehand. Radioactivity was measured using the Scintillation Counter 1900 TR, TRI-CARB (Packard, Perkin Elmer, Inc., San Jose, CA, USA). The intensity of DNA biosynthesis in the analyzed cells was expressed in terms of dpm/well. The result of the radioactivity measurement in the control cells (without the addition of tested compounds) was taken as 100%, while the values of cells incubated with the tested compounds were presented as a percentage of the control value.

Row | SMILES | Bcl-2 negative cells ± SD (Bcl-2; MCF-7, 0.5 μM) [%] | Bcl-2 negative cells ± SD (Bcl-2; MCF-7, 1 μM) [%] | Active caspase 8 ± SD (cells) (caspase 8; MDA-MB-231, 0.5 μM) [%] | Active caspase 8 ± SD (cells) (caspase 8; MDA-MB-231, 1 μM) [%] | Active caspase 7 ± SD (cells) (caspase 7; 0.5 μM) [%] | Active caspase 7 ± SD (cells) (caspase 7; 1 μM) [%] | development of necrosis in the breast cancer cell lines (in words) [1] | Active caspase 3/7 ± SD (cells) (caspase 3/7; MDA-MB-231, 0.5 μM) [%] | Active caspase 3/7 ± SD (cells) (caspase 3/7; MDA-MB-231, 1 μM) [%] | Bax positive cells ± SD (Bax; MDA-MB-231, 0.5 μM) [%] | Bax positive cells ± SD (Bax; MDA-MB-231, 1 μM) [%] | LC3A/B positive cells ± SD (LC3A/B; MDA-MB-231, 0.5 μM) [%] | LC3A/B positive cells ± SD (LC3A/B; MDA-MB-231, 1 μM) [%] | IC50 ([2]; Homo sapiens, MDA-MB-231, 24 h) [nM] | IC50 ([2]; MDA-MB-231, 24 h incubation) [nM]
1 | CC(=O)C[Se]C(=O)c1ccc(C(=O)[Se]CC(C)=O)cc1 [EDAG-1, Se,Se-bis(2-oxopropyl) benzene-1,4-bis(carboselenoate)] | 13.9 ± 0.9 | 38.4 ± 4.0 | 11.5 ± 0.9 | 14.4 ± 1.2 | 5.7 ± 0.5 | 6.9 ± 0.5 | did not affect the development of necrosis | 9.2 ± 0.5 | 12.5 ± 0.4 | 12.5 ± 2.3 | 37.8 ± 5.1 | 10.5 ± 1.4 | 15.4 ± 1.3 | 700 ± 150 | 
2 | CC(=O)C[Se]C(=O)c1cc(C(=O)[Se]CC(C)=O)cc(C(=O)[Se]CC(C)=O)c1 [EDAG-8, Se,Se,Se-tris-(2-oxopropyl) benzene-1,3,5-tris-(carboxyselenoate)] | 45.2 ± 9.3 | 63.6 ± 3.7 | 15.0 ± 2.0 | 26.6 ± 3.6 | 7.4 ± 0.8 | 16.3 ± 2.6 | did not affect the development of necrosis | 19.7 ± 0.6 | 32.2 ± 2.9 | 34.5 ± 3.4 | 60.3 ± 8.8 | 14.8 ± 0.5 | 17.0 ± 1.6 | 470 ± 80 | 
3 | N.N.[Cl][Pt][Cl] [Cisplatin, reference compound] | 2.7 ± 0.2 | 2.7 ± 0.1 | 7.3 ± 0.7 | 8.0 ± 1.6 | 4.3 ± 0.3 | 4.6 ± 0.3 |  | 5.2 ± 0.5 | 5.2 ± 0.6 | 1.3 ± 0.3 | 1.4 ± 0.1 | 2.4 ± 0.5 | 3.2 ± 0.3 |  | > 5000

Reference: article PMC11277004, “Di- and Triselenoesters—Promising Drug Candidates for the Future Therapy of Triple-Negative Breast Cancer” (International Journal of Molecular Sciences, 2024)
